≈ marks a conversion by molar mass, not a printed value.

The target of one data set is human wild type-CFTR (Homo sapiens, UniProt P13569). As to the kind of experiment: Cell-based YFP assay. Details: expressed in transfected cells; host or cells: CHO-K1 (Chinese hamster ovary). The note with it: CHO-K1 cells expressing human wild type-CFTR and YFP-H148Q/I152L; forskolin 20 μM = 100% activity; read-out: Cell-based YFP Assay (EC50) Concentration Range. In a few lines:
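CHO-K1 cells co-expressing human wild-type CFTR and YFP-H148Q/I152L halide sensor, grown 48 h at 37 °C, then in PBS. YFP quenching by I⁻ influx read at 37 °C after adding 140 mM I⁻ solution, sampled every 0.4 s for 14 s. Triplicates averaged; EC50 fitted.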

Data set [1] in a line: Phosphate-buffered saline (PBS) solubility of compounds. It counts as physicochemical. As to conditions: aqueous buffer, thermodynamic from solid, PBS pH 7.5, 0.5 mg/mL, vortexed 90 min, filtered, LC-MS/MS, read-out: Solubility Range. On the procedure:
PBS solutions (pH 7.5) were prepared according to the following compositions and stored at 4° C. Test compounds were dissolved in PBS (pH 7.5) at 0.5 mg/mL and vortexed for 90 min. The PBS solution was sequentially filtered through a 0.45, 1.2, […] syringe filter. Concentration of test compounds were determined using LC-MS/MS with appropriate dilution of the samples.

human wild type-CFTR, sequence (P13569 whole entry): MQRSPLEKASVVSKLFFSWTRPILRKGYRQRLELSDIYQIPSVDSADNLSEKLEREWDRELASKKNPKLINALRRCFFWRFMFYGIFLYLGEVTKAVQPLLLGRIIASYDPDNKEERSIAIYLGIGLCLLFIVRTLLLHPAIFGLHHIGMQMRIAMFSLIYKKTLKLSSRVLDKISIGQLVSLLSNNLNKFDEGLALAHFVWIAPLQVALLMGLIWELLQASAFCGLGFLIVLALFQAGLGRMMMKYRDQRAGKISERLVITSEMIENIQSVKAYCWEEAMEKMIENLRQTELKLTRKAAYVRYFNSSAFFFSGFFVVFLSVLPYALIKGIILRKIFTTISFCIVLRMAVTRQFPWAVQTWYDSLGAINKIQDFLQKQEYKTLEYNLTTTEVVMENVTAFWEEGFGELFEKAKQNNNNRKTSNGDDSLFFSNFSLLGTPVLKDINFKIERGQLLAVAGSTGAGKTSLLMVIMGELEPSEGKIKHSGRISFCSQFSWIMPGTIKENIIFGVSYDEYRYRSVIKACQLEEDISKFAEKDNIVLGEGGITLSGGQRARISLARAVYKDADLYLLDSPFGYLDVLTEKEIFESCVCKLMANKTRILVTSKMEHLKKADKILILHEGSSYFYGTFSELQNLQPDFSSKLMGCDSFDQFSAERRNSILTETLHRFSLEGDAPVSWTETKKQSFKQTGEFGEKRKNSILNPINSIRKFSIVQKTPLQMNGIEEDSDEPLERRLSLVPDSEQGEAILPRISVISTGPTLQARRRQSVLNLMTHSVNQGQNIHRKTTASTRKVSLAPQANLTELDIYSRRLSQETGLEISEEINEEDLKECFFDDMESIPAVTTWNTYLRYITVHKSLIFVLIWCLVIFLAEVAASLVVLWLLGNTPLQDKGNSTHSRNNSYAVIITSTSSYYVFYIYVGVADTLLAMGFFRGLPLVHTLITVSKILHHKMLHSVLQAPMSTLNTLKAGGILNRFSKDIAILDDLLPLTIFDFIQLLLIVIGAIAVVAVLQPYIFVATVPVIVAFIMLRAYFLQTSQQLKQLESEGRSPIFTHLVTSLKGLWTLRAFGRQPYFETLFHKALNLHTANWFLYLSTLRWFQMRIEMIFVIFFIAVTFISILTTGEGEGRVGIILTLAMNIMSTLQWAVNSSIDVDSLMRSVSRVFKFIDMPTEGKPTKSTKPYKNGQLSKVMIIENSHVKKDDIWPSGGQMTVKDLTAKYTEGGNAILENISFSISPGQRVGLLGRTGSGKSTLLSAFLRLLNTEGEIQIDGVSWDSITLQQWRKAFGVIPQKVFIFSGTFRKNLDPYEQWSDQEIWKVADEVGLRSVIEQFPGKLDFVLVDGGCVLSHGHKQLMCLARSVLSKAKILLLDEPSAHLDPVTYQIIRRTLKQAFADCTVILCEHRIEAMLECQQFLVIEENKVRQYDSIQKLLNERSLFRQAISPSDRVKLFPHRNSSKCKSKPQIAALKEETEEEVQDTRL

`COc1ccc(-c2ccnc3cc(C(=O)Nc4ccc(C(=O)OCc5ccccc5)cn4)nn23)cc1OC` [Compound 114, benzyl 6-(7-(3,4-dimethoxyphenyl)pyrazolo [1,5-a]pyrimidine-2-carboxamido)nicotinate]: the EC50 on human wild type-CFTR is < 200 nM. Moreover, the solubility at 90 min in data set [1] was < 0.1 µg/mL.

As for `COc1ccc(-c2ccnc3cc(C(=O)Nc4ccc(C(=O)OCCCN5CCOCC5)cc4)nn23)cc1OC` [Compound 121, 3-morpholinopropyl 4-(7-(3,4-dimethoxyphenyl)pyrazolo [1,5-a]pyrimidine-2-carboxamido)benzoate], the EC50 on human wild type-CFTR is < 200 nM. In addition, the solubility at 90 min in data set [1] was < 0.1 µg/mL.

In the case of `COC(=O)c1ccc(NC(=O)c2cc3nccc(-c4ccc(OC)c(OC)c4)n3n2)c(C)c1` [Compound 125, methyl 4-(7-(3,4-dimethoxyphenyl)pyrazolo [1,5-a]pyrimidine-2-carboxamido)-3-methylbenzoate], the EC50 on human wild type-CFTR was < 200 nM. Also, the solubility at 90 min in data set [1] is < 0.1 µg/mL.

For `COc1ccc(-c2ccnc3cc(C(=O)Nc4ccc(C(=O)NCCN5CCOCC5)cc4)nn23)cc1OC` [Compound 139, 7-(3,4-dimethoxyphenyl)-N-(4-((2-morpholinoethyl)carbamoyl)phenyl)pyrazolo[1,5-a]pyrimidine-2-carboxamide], on human wild type-CFTR, the EC50 is < 200 nM. Besides, in data set [1], the solubility at 90 min was < 0.1 µg/mL.

Turning to `COc1ccc(-c2ccnc3cc(C(=O)N4CC[C@H](NC(=O)OC(C)(C)C)C4)nn23)cc1OC` [Compound 145, tert-butyl (S)-(1-(7-(3,4-dimethoxyphenyl)pyrazolo [1,5-a]pyrimidine-2-carbonyl)pyrrolidine-3-yl)carbamate], at human wild type-CFTR, the EC50 is 200 to 2000 nM. In addition, the solubility at 90 min in data set [1] was 0.1 to 10 µg/mL (≈ 0.214 to 21.4 µM).

On to `COc1ccc(-c2ccnc3cc(C(=O)Nc4ccc(C(=O)O)cc4F)nn23)cc1OC` [Compound 156, 4-(7-(3,4-dimethoxyphenyl)pyrazolo[1,5-a]pyrimidine-2-carboxamido)-3-fluorobenzoic acid], for which the EC50 on human wild type-CFTR is < 200 nM. Also, the solubility at 90 min in data set [1] was 0.1 to 10 µg/mL (≈ 0.229 to 22.9 µM).

Take `COc1ccc(-c2ccnc3cc(C(=O)Nc4ccc(C(=O)N5CCOCC5)cc4F)nn23)cc1OC` [Compound 157, 7-(3,4-dimethoxyphenyl)-N-(2-fluoro-4-(morpholine-4-carbonyl)phenyl)pyrazolo[1,5-a]pyrimidine-2-carboxamide]: the EC50 at human wild type-CFTR was < 200 nM. Further, the solubility at 90 min in data set [1] is < 0.1 µg/mL.

For the molecule `COc1ccc(-c2ccnc3cc(C(=O)Nc4ccc(C(=O)N5CCOCC5)c(Cl)c4)nn23)cc1OC` [Compound 160, N-(3-chloro-4-(morpholine-4-carbonyl)phenyl)-7-(3,4-dimethoxyphenyl) pyrazolo[1,5-a]pyrimidine-2-carboxamide], the EC50 on human wild type-CFTR fell in the range of 200 to 2000 nM. The solubility at 90 min in data set [1] is < 0.1 µg/mL.

On to `COc1ccc(-c2ccnc3cc(C(=O)Nc4ccc(C(=O)N5CCN(C)CC5)c(Cl)c4)nn23)cc1OC` [Compound 161, N-(3-chloro-4-(4-methylpiperazine-1-carbonyl)phenyl)-7-(3,4-dimethoxyphenyl)pyrazolo [1,5-a]pyrimidine-2-carboxamide], for which the EC50 at human wild type-CFTR was in the range of 200 to 2000 nM. The solubility at 90 min in data set [1] was in the range of 0.1 to 10 µg/mL (≈ 0.187 to 18.7 µM).

In the case of `COc1ccc(-c2ccnc3cc(C(=O)Nc4ccc(C(=O)OCCCN5CCOCC5)c(F)c4)nn23)cc1OC` [Compound 163, 3-morpholinopropyl 4-(7-(3,4-dimethoxyphenyl)pyrazolo [1,5-a]pyrimidine-2-carboxamido)-2-fluorobenzoate], the EC50 on human wild type-CFTR was 200 to 2000 nM. For the same molecule, the solubility at 90 min in data set [1] was < 0.1 µg/mL.

Turning to `COc1ccc(-c2ccnc3cc(C(=O)Nc4ccc(C(=O)OCCN5CCOCC5)cc4)nn23)cc1OC` [Compound 164, 2-morpholinoethyl 4-(7-(3,4-dimethoxyphenyl)pyrazolo [1,5-a]pyrimidine-2-carboxamido)benzoate], the EC50 on human wild type-CFTR was < 200 nM. Further, in data set [1], the solubility at 90 min was < 0.1 µg/mL.

Take `COc1ccc(-c2ccnc3cc(C(=O)Nc4ccc(C(=O)OCCCN5CCN(C)CC5)cc4)nn23)cc1OC` [Compound 165, 3-(4-methylpiperazin-1-yl)propyl 4-(7-(3,4-dimethoxyphenyl)pyrazolo[1,5-a]pyrimidine-2-carboxamido)benzoate]: on human wild type-CFTR, the EC50 fell in the range of 200 to 2000 nM. Moreover, in data set [1], the solubility at 90 min was < 0.1 µg/mL.

Consider `COc1ccc(-c2ccnc3cc(C(=O)Nc4ccc(C(=O)N5CC6(CN(C)C6)C5)cc4)nn23)cc1OC` [Compound 166, 7-(3,4-dimethoxyphenyl)-N-(4-(6-methyl-2,6-diazaspiro[3.3]heptane-2-carbonyl)phenyl)pyrazolo [1,5-a]pyrimidine-2-carboxamide], for which, at human wild type-CFTR, the EC50 lay in the range of 200 to 2000 nM. The solubility at 90 min in data set [1] is < 0.1 µg/mL.

With `COC(=O)c1ccc(NC(=O)c2cc3nccc(-c4ccc(OC)c(OC)c4)n3n2)cc1O` [Compound 167, methyl 4-(7-(3,4-dimethoxyphenyl)pyrazolo [1,5-a]pyrimidine-2-carboxamido)-2-hydroxybenzoate], the EC50 at human wild type-CFTR is < 200 nM. The solubility at 90 min in data set [1] is < 0.1 µg/mL.

As for `COc1ccc(-c2ccnc3cc(C(=O)Nc4ccc(C(=O)O)c(O)c4)nn23)cc1OC` [Compound 168, 4-(7-(3,4-dimethoxyphenyl)pyrazolo[1,5-a]pyrimidine-2-carboxamido)-2-hydroxybenzoic acid], the EC50 on human wild type-CFTR lay within 200 to 2000 nM. For the same molecule, in data set [1], the solubility at 90 min was < 0.1 µg/mL.

For the molecule `COc1ccc(-c2ccnc3cc(C(=O)Nc4ccc(C(=O)N5CCOCC5)c(O)c4)nn23)cc1OC` [Compound 169, 7-(3,4-dimethoxyphenyl)-N-(3-hydroxy-4-(morpholine-4-carbonyl)phenyl)pyrazolo[1,5-a]pyrimidine-2-carboxamide], the EC50 on human wild type-CFTR was < 200 nM. Moreover, the solubility at 90 min in data set [1] is < 0.1 µg/mL.

Consider `COc1ccc(-c2ccnc3cc(C(=O)Nc4ccc(C(=O)N5CCN(C)CC5)c(O)c4)nn23)cc1OC` [Compound 170, 7-(3,4-dimethoxyphenyl)-N-(3-hydroxy-4-(4-methylpiperazine-1-carbonyl)phenyl)pyrazolo [1,5-a]pyrimidine-2-carboxamide], for which, on human wild type-CFTR, the EC50 is < 200 nM. Besides, the solubility at 90 min in data set [1] fell in the range of 0.1 to 10 µg/mL (≈ 0.194 to 19.4 µM).

For the molecule `COc1ccc(-c2ccnc3cc(C(=O)Nc4ccc(C(=O)NCCN5CCN(C)CC5)cc4)nn23)cc1OC` [Compound 178, 7-(3,4-dimethoxyphenyl)-N-(4-((2-(4-methylpiperazin-1-yl)ethyl)carbamoyl)phenyl)pyrazolo[1,5-a]pyrimidine-2-carboxamide], on human wild type-CFTR, the EC50 was in the range of 200 to 2000 nM. Moreover, in data set [1], the solubility at 90 min was > 10 µg/mL.

`COc1ccc(-c2ccnc3cc(C(=O)Nc4ccc(N5CCN(C)CC5)cn4)nn23)cc1OC` [Compound 204, 7-(3,4-dimethoxyphenyl)-N-(5-(4-methylpiperazin-1-yl)pyridin-2-yl)pyrazolo[1,5-a]pyrimidine-2-carboxamide]: the EC50 on human wild type-CFTR was < 200 nM. The solubility at 90 min in data set [1] is < 0.1 µg/mL.

In the case of `COc1ccc(-c2ccnc3cc(C(=O)Nc4ccc(NC(=O)[C@H](C)NC(=O)OC(C)(C)C)cc4)nn23)cc1OC` [Compound 281], at human wild type-CFTR, the EC50 was < 200 nM. Besides, in data set [1], the solubility at 90 min was < 0.1 µg/mL.

Regarding `COc1ccc(-c2ccnc3cc(C(=O)Nc4ccc(NC(=O)[C@@H](NC(=O)OC(C)(C)C)C(C)C)cc4)nn23)cc1OC` [Compound 282, tert-butyl (S)-(1-((4-(7-(3,4-dimethoxyphenyl)pyrazolo [1,5-a]pyrimidine-2-carboxamido)phenyl)amino)-3-methyl-1-oxobutan-2-yl)carbamate], the EC50 at human wild type-CFTR is < 200 nM. In data set [1], the solubility at 90 min was < 0.1 µg/mL.

The values above are taken from patent publication US20240199623A1 (ILDONG PHARMACEUTICAL CO., LTD., priority 2020, published 2024).
